From PubChem BioAssay AID248 (DTP/NCI, 2004)
“And” between values parts separate entries of the source, which are not always exact repeats. Identical values can stand only once. Toxic doses and inconclusive results are not listed.

Tested on: L1210 leukemia ip in BDF1 mice, survival T/C
Experiment: NCI In Vivo Anticancer Drug Screen. Data for tumor model L1210 Leukemia (intraperitoneal) in B6D2F1 (BDF1) mice
Details: endpoint: mean survival time, higher = longer survival
Procedure, shortened: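 Transplanted-tumor mice were given test agent; controls received vehicle only. Survival readings from the two groups were divided (treated over control).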

[1] = dose: 100.0 mg/kg/injection, schedule: Q04DX002 (ip), vehicle: Klucel (hydroxypropylcellulose) (HPC)
[2] = dose: 200.0 mg/kg/injection, schedule: Q04DX002 (ip), vehicle: Klucel (hydroxypropylcellulose) (HPC)
[3] = dose: 100.0 mg/kg/injection, schedule: Q04DX003 (ip), vehicle: saline
[4] = dose: 200.0 mg/kg/injection, schedule: Q04DX003 (ip), vehicle: saline

With `O=c1[nH]c(=O)n(C2CC(O)C(CO)O2)cc1I` (stereo unspecified) the T/C (dose: 62.5 mg/kg/injection, schedule: Q#A X Z (ip), vehicle: other) was 119 % of control, the T/C (dose: 125.0 mg/kg/injection, schedule: Q01DX009 (ip), vehicle: saline) was 103 % of control and 113 % of control and the T/C (dose: 125.0 mg/kg/injection, schedule: Q01DX010 (ip), vehicle: saline) was 114 % of control and 117 % of control. The T/C (dose: 125.0 mg/kg/injection, schedule: Q03DX Z (ip), vehicle: other) was 119 % of control, the T/C (dose: 150.0 mg/kg/injection, schedule: Q01DX009 (ip), vehicle: carboxymethylcellulose (CMC)) was 167 % of control and the T/C (dose: 150.0 mg/kg/injection, schedule: Q01DX009 (ip), vehicle: saline) was 114 % of control. The T/C (dose: 178.0 mg/kg/injection, schedule: Q01DX Z (ip), vehicle: other) was 124 % of control, the T/C (dose: 178.0 mg/kg/injection, schedule: Q01DX Z (ip), vehicle: saline) was 112 % of control and the T/C (dose: 250.0 mg/kg/injection, schedule: Q01DX001 (ip), vehicle: other) was 105 % of control and 108 % of control. For the same molecule, the T/C (dose: 250.0 mg/kg/injection, schedule: Q01DX009 (ip), vehicle: saline) was 111 % of control and 118 % of control, the T/C (dose: 250.0 mg/kg/injection, schedule: Q01DX010 (ip), vehicle: saline) was 114 % of control and the T/C (dose: 250.0 mg/kg/injection, schedule: Q03DX Z (ip), vehicle: other) was 104 % of control. For the same molecule, the T/C (dose: 250.0 mg/kg/injection, schedule: Q07DX Z (ip), vehicle: other) was 110 % of control, the T/C (dose: 267.0 mg/kg/injection, schedule: Q01DX Z (ip), vehicle: other) was 116 % of control and the T/C (dose: 267.0 mg/kg/injection, schedule: Q01DX Z (ip), vehicle: saline) was 122 % of control. For the same molecule, the T/C (dose: 300.0 mg/kg/injection, schedule: Q01DX005 (ip), vehicle: carboxymethylcellulose (CMC)) was 151 % of control, the T/C (dose: 300.0 mg/kg/injection, schedule: Q01DX009 (ip), vehicle: saline) was 121 % of control and the T/C (dose: 304.0 mg/kg/injection, schedule: Q## X024 (ip), vehicle: carboxymethylcellulose (CMC)) was 150 % of control. The T/C (dose: 400.0 mg/kg/injection, schedule: Q01DX Z (ip), vehicle: other) was 113 % of control, the T/C (dose: 500.0 mg/kg/injection, schedule: Q01DX001 (ip), vehicle: other) was 110 % of control and 113 % of control and the T/C (dose: 500.0 mg/kg/injection, schedule: Q01DX009 (ip), vehicle: saline) was 116 % of control and 120 % of control. For the same molecule, the T/C (dose: 500.0 mg/kg/injection, schedule: Q01DX010 (ip), vehicle: saline) was 111 % of control and 122 % of control, the T/C (dose: 500.0 mg/kg/injection, schedule: Q03DX Z (ip), vehicle: other) was 116 % of control and the T/C (dose: 500.0 mg/kg/injection, schedule: Q07DX Z (ip), vehicle: other) was 113 % of control. The T/C (dose: 500.0 mg/kg/injection, schedule: Q#A X Z (ip), vehicle: other) was 152 % of control, the T/C (dose: 600.0 mg/kg/injection, schedule: Q01DX005 (ip), vehicle: carboxymethylcellulose (CMC)) was 107 % of control and the T/C (dose: 600.0 mg/kg/injection, schedule: Q01DX009 (ip), vehicle: carboxymethylcellulose (CMC)) was 92 % of control. For the same molecule, the T/C (dose: 600.0 mg/kg/injection, schedule: Q## X002 (ip), vehicle: carboxymethylcellulose (CMC)) was 158 % of control, the T/C (dose: 600.0 mg/kg/injection, schedule: Q## X003 (ip), vehicle: carboxymethylcellulose (CMC)) was 170 % of control and the T/C (dose: 600.0 mg/kg/injection, schedule: Q## X016 (ip), vehicle: carboxymethylcellulose (CMC)) was 158 % of control. For the same molecule, the T/C (dose: 600.0 mg/kg/injection, schedule: Q## X024 (ip), vehicle: carboxymethylcellulose (CMC)) was 182 % of control, the T/C (dose: 900.0 mg/kg/injection, schedule: Q01DX Z (ip), vehicle: saline) was 164 % of control and the T/C (dose: 1000.0 mg/kg/injection, schedule: Q01DX001 (ip), vehicle: other) was 110 % of control and 116 % of control. For the same molecule, the T/C (dose: 1000.0 mg/kg/injection, schedule: Q01DX009 (ip), vehicle: saline) was 111 % of control and 117 % of control, the T/C (dose: 1000.0 mg/kg/injection, schedule: Q01DX010 (ip), vehicle: saline) was 111 % of control and 124 % of control and the T/C (dose: 1000.0 mg/kg/injection, schedule: Q03DX Z (ip), vehicle: other) was 117 % of control. For the same molecule, the T/C (dose: 1000.0 mg/kg/injection, schedule: Q07DX Z (ip), vehicle: other) was 105 % of control, the T/C (dose: 1200.0 mg/kg/injection, schedule: Q01DX001 (ip), vehicle: carboxymethylcellulose (CMC)) was 161 % of control and the T/C (dose: 1200.0 mg/kg/injection, schedule: Q## X002 (ip), vehicle: carboxymethylcellulose (CMC)) was 187 % of control. For the same molecule, the T/C (dose: 1200.0 mg/kg/injection, schedule: Q## X003 (ip), vehicle: carboxymethylcellulose (CMC)) was 211 % of control, the T/C (dose: 1200.0 mg/kg/injection, schedule: Q## X008 (ip), vehicle: carboxymethylcellulose (CMC)) was 157 % of control and the T/C (dose: 1200.0 mg/kg/injection, schedule: Q## X016 (ip), vehicle: carboxymethylcellulose (CMC)) was 167 % of control. The T/C (dose: 1200.0 mg/kg/injection, schedule: Q## X024 (ip), vehicle: carboxymethylcellulose (CMC)) was 160 % of control, the T/C (dose: 2000.0 mg/kg/injection, schedule: Q01DX010 (ip), vehicle: saline) was 119 % of control and the T/C (dose: 2400.0 mg/kg/injection, schedule: Q01DX001 (ip), vehicle: carboxymethylcellulose (CMC)) was 175 % of control. The T/C (dose: 2400.0 mg/kg/injection, schedule: Q## X002 (ip), vehicle: carboxymethylcellulose (CMC)) was 161 % of control, the T/C (dose: 2400.0 mg/kg/injection, schedule: Q## X003 (ip), vehicle: carboxymethylcellulose (CMC)) was 101 % of control and the T/C (dose: 2400.0 mg/kg/injection, schedule: Q## X008 (ip), vehicle: carboxymethylcellulose (CMC)) was 188 % of control. For the same molecule, the T/C (dose: 2400.0 mg/kg/injection, schedule: Q## X016 (ip), vehicle: carboxymethylcellulose (CMC)) was 232 % of control.
With `CN(C)Cc1ccccc1COC(=O)c1ccc(Br)cc1` the T/C (dose: 50.0 mg/kg/injection, schedule: Q04DX002 (ip), vehicle: Klucel (hydroxypropylcellulose) (HPC)) was 98 % of control, the T/C [1] was 105 % of control and the T/C [2] was 94 % of control.
For `OC1(c2ccccc2)C2=CC(c3ccccc3)=C(c3ccccc3)CC2C(c2ccccc2)C1c1ccccc1` (stereo unspecified), the T/C (dose: 100.0 mg/kg/injection, schedule: Q01DX001 (ip), vehicle: saline with Tween-80) was 100 % of control, the T/C (dose: 200.0 mg/kg/injection, schedule: Q01DX001 (ip), vehicle: saline with Tween-80) was 91 % of control and the T/C (dose: 400.0 mg/kg/injection, schedule: Q01DX001 (ip), vehicle: saline with Tween-80) was 96 % of control.
`COC(=O)c1cc(=O)c2c(Cl)cccc2[nH]1` was tested, and the T/C [3] was 96 % of control, the T/C [4] was 110 % of control and the T/C (dose: 400.0 mg/kg/injection, schedule: Q04DX003 (ip), vehicle: saline) was 95 % of control.
In the case of `CC(C(=O)NN)C(C)(C)O` (stereo unspecified), the T/C [1] is reported as 97 % of control, the T/C [2] is reported as 94 % of control and the T/C (dose: 400.0 mg/kg/injection, schedule: Q04DX002 (ip), vehicle: Klucel (hydroxypropylcellulose) (HPC)) is reported as 101 % of control.
`CN(C)Cc1cc(Cl)cc(CN(C)C)c1O` was tested, and the T/C (dose: 100.0 mg/kg/injection, schedule: Q04DX002 (ip), vehicle: saline with Tween-80) was 104 % of control, the T/C [3] was 99 % of control and the T/C [4] was 104 % of control.
In the case of `O=C1C(N2CC2)=C(N2CCCC(O)C2)C(=O)C(N2CC2)=C1N1CCCC(O)C1` (stereo unspecified), the T/C (dose: 0.12 mg/kg/injection, schedule: Q04DX003 (ip), vehicle: saline) is reported as 103 % of control, the T/C (dose: 0.25 mg/kg/injection, schedule: Q04DX003 (ip), vehicle: saline) is reported as 111 % of control and the T/C (dose: 0.37 mg/kg/injection, schedule: Q01DX001 (ip), vehicle: saline) is reported as 98 % of control. For the same molecule, the T/C (dose: 0.37 mg/kg/injection, schedule: Q01DX009 (ip), vehicle: saline) was 102 % of control and 103 % of control, the T/C (dose: 0.5 mg/kg/injection, schedule: Q04DX003 (ip), vehicle: saline) was 123 % of control and the T/C (dose: 0.75 mg/kg/injection, schedule: Q01DX001 (ip), vehicle: saline) was 108 % of control. For the same molecule, the T/C (dose: 0.75 mg/kg/injection, schedule: Q01DX009 (ip), vehicle: saline) was 96 % of control, the T/C (dose: 1.5 mg/kg/injection, schedule: Q01DX001 (ip), vehicle: saline) was 105 % of control and the T/C (dose: 1.5 mg/kg/injection, schedule: Q01DX009 (ip), vehicle: saline) was 124 % of control. The T/C (dose: 2.0 mg/kg/injection, schedule: Q04DX003 (ip), vehicle: saline) was 168 % of control, the T/C (dose: 3.0 mg/kg/injection, schedule: Q01DX001 (ip), vehicle: saline) was 102 % of control and the T/C (dose: 3.0 mg/kg/injection, schedule: Q01DX009 (ip), vehicle: saline) was 159 % of control. The T/C (dose: 4.0 mg/kg/injection, schedule: Q04DX003 (ip), vehicle: saline) was 156 % of control and 184 % of control and the T/C (dose: 6.0 mg/kg/injection, schedule: Q04DX003 (ip), vehicle: saline) was 204 % of control.
In the case of `CC(C)COC(=O)C1(C)OC1c1ccccc1` (stereo unspecified), the T/C (dose: 100.0 mg/kg/injection, schedule: Q04DX002 (ip), vehicle: saline) is reported as 115 % of control, the T/C (dose: 200.0 mg/kg/injection, schedule: Q04DX002 (ip), vehicle: saline) is reported as 104 % of control and the T/C (dose: 400.0 mg/kg/injection, schedule: Q04DX002 (ip), vehicle: saline) is reported as 97 % of control.
